# Reference: ChEMBL document CHEMBL2429761, “Discovery of ML314, a Brain Penetrant Non-Peptidic β-Arrestin Biased Agonist of the Neurotensin NTR1 Receptor” (ACS Med Chem Lett, 2013)
# What was measured:
# Histamine H1 receptor = Histamine H1 receptor (Homo sapiens, UniProt P35367); experiment: Binding affinity to histamine H1 receptor (unknown origin)
# Plasma [1] = experiment: Plasma protein binding in human at 1 uM after 4 hrs by LC-MS/MS analysis; format: ADME, cell-free
# [2] = molecular target: G-protein coupled receptor 35 (Homo sapiens, UniProt Q9HC97); experiment: Agonist activity at GPR35 (unknown origin) expressed in human U2OS cells coexpressing beta-arrestin by GFP reporter gene assay; format: cell-based
# G-protein coupled receptor 35, sequence (Q9HC97 whole entry): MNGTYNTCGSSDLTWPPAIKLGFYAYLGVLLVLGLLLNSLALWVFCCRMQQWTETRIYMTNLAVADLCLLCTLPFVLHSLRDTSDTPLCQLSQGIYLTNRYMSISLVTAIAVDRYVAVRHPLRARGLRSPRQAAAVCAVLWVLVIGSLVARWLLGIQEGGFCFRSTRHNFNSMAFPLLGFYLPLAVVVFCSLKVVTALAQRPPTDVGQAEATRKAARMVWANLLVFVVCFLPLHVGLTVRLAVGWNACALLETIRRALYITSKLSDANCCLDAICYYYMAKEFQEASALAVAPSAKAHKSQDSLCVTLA
# Hepatitis C virus = experiment: Antiviral activity against Hepatitis C virus assessed as growth inhibition; format: functional, Hepacivirus hominis
# [3] = Kinetic solubility of the compound in pION buffer at 250 uM after 18 hrs at pH 7.4; format: physicochemical; details: read-out: Kinetic_solubility
# Mu-type opioid receptor = Mu-type opioid receptor (Homo sapiens, UniProt P35372); experiment: Binding affinity to mu opioid receptor (unknown origin) at 10 uM relative to control
# Mu-type opioid receptor, sequence (P35372 whole entry): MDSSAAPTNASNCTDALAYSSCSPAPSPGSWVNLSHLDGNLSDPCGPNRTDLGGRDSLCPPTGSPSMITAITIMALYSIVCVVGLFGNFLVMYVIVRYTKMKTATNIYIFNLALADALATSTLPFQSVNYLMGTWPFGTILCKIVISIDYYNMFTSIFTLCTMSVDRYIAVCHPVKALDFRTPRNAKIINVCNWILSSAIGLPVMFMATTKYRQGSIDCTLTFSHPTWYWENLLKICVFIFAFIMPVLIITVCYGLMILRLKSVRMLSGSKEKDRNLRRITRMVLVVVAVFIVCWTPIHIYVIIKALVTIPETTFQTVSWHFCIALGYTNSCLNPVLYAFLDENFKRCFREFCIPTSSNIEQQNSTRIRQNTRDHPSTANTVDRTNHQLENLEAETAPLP
# Plasma [4] = experiment: Plasma protein binding in mouse at 1 uM after 4 hrs by LC-MS/MS analysis; format: ADME, cell-free
# Plasma [5] = experiment: Plasma protein binding in human at 10 uM after 4 hrs by LC-MS/MS analysis; format: ADME, cell-free
# [6] = molecular target: Neurotensin receptor type 2 (Homo sapiens, UniProt O95665); experiment: Agonist activity at NTR2 (unknown origin) expressed in human U2OS cells coexpressing beta-arrestin by GFP reporter gene assay; format: cell-based
# Neurotensin receptor type 2, sequence (O95665 whole entry): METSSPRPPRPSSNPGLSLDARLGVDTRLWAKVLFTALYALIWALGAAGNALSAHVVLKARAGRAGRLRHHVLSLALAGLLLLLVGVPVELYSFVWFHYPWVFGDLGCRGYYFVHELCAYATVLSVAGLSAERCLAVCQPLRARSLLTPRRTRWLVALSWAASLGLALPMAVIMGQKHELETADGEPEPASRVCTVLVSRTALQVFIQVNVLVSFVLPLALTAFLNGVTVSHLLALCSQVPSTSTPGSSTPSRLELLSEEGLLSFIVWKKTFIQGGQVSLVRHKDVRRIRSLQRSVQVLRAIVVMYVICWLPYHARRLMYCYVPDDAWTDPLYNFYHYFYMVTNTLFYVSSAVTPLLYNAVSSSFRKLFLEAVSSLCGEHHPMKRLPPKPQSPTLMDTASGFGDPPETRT
# [7] = Kinetic solubility of the compound in pION buffer at 250 uM after 18 hrs at pH 6.2; format: physicochemical; details: read-out: Kinetic_solubility
# [8] = molecular target: T1, Alpha-1B adrenergic receptor (Homo sapiens) (UniProt P35368); experiment: Binding affinity to adrenergic alpha1B receptor (unknown origin) at 10 uM relative to control
# T1 sequence (whole entry): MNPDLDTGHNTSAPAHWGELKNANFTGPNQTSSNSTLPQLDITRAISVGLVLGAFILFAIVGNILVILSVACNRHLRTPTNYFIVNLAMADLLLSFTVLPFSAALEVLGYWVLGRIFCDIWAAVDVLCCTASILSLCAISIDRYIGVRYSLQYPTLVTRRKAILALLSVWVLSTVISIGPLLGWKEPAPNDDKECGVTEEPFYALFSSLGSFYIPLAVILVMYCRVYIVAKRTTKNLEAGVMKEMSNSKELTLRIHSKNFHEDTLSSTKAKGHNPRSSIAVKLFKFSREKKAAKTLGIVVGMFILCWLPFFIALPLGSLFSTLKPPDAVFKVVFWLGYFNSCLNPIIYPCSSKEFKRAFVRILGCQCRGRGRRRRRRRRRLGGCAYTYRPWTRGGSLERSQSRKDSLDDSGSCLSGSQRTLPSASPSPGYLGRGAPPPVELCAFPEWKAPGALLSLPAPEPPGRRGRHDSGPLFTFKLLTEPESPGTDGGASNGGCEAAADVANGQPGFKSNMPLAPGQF
# [9] = molecular target: T2, Alpha-1A adrenergic receptor (Homo sapiens) (UniProt P35348); experiment: Binding affinity to adrenergic alpha1A receptor (unknown origin) at 10 uM relative to control
# T2 sequence (whole entry): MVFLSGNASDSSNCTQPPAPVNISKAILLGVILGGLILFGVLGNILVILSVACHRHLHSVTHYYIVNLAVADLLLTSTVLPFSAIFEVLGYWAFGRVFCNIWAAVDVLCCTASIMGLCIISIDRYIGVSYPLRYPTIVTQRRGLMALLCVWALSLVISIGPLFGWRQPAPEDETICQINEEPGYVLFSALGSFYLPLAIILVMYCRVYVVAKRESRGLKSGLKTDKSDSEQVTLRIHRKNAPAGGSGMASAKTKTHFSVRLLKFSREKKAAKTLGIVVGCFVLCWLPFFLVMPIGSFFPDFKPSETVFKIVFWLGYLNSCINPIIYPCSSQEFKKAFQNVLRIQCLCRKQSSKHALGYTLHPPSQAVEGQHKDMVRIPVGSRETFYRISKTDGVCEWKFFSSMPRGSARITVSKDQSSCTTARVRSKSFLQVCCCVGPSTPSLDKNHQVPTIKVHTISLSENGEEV
# [10] = Effective permeability of the compound at 50 uM after 30 mins at donor pH 5 and acceptor pH 7.4 by PAMPA; format: ADME; details: pH 5, 0.5 h
# Plasma [11] = experiment: Metabolic stability in human plasma assessed as compound remaining at 1 uM after 3 hrs by LC-MS/MS analysis; format: ADME, cell-free
# Plasma [12] = experiment: Metabolic stability in mouse plasma assessed as compound remaining at 1 uM after 3 hrs by LC-MS/MS analysis; format: ADME, cell-free
# [13] = molecular target: T3, 5-hydroxytryptamine receptor 3A (Homo sapiens, UniProt P46098); experiment: Binding affinity to 5-HT3 receptor (unknown origin)
# T3 sequence (P46098 whole entry): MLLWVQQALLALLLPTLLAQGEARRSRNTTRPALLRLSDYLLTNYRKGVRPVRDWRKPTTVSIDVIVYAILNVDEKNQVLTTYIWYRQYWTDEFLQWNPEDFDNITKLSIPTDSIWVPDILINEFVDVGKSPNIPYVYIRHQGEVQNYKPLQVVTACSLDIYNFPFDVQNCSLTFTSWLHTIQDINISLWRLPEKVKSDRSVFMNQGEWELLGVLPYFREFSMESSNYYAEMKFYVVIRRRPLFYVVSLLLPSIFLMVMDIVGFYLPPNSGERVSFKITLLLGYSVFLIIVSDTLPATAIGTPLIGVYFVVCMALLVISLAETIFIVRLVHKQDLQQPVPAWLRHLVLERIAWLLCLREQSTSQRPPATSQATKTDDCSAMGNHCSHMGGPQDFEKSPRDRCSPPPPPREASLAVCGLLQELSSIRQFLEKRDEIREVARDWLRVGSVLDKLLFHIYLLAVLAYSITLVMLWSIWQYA
# [14] = Hepatotoxicity in human Fa2N-4 cells after 24 hrs by luminescence assay; format: toxicity, cell-based; details: fa2n-4, 24 h, read-out: LC50 (the source's name)
# [15] = Drug uptake in C57BL/6J mouse brain at 10 mg/kg, ip after 1 hr by LC-MS/MS analysis; format: ADME, organism-based; parameters: dose 10 mg/kg, route intraperitoneal; details: read-out: Drug uptake
# [16] = Effective permeability of the compound at 50 uM after 30 mins at donor pH 7.4 and acceptor pH 7.4 by PAMPA; format: ADME; details: pH 7.4, 0.5 h
# Histamine H1 receptor, sequence (P35367 whole entry): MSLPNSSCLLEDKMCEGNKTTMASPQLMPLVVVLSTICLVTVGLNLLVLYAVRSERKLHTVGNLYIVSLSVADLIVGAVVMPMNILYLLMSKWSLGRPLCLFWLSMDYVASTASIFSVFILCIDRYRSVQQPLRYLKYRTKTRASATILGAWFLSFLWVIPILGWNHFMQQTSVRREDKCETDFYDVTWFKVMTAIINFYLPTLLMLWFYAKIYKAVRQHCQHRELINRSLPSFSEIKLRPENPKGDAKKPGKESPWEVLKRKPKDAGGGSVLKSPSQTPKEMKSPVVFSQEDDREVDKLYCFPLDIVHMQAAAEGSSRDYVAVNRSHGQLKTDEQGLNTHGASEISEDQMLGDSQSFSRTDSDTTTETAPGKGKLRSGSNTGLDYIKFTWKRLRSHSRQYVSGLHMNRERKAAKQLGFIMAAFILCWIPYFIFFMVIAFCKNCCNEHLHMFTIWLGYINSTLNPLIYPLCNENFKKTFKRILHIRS
smiles,measurement,setting,value
COc1cc2nc(C3CC3)nc(N3CCN(c4ccccc4OC)CC3)c2cc1OC,Ki,Histamine H1 receptor,1.42 µM
same,PPB,Plasma [1],99.5%
same,EC50,[2],> 40 µM
same,GI,Hepatitis C virus,3.16 µM
same,"solubility kinetic at 18 h, 250 µM",[3],1.2 µM
same,Activity,Mu-type opioid receptor,86%
same,PPB,Plasma [4],99.7%
same,PPB,Plasma [5],99.2%
same,EC50,[6],> 80 µM
same,"solubility kinetic at 18 h, 250 µM",[7],21.4 µM
same,Activity,[8],63%
same,Activity,[9],63%
same,Peff,[10],1160 ×10⁻⁶ cm/s
same,Stability,Plasma [11],100%
same,Stability,Plasma [12],99.6%
same,Ki,[13],1 µM
same,CC50,[14],29.6 µM
same,concentration at 1 h,[15],924 ng/mL
same,Peff,[16],2090 ×10⁻⁶ cm/s
